Columns and labels:
[1] = biological target: T1, Full length human recombinant HDAC8 protein (Homo sapiens, UniProt Q9BY41); assay: In vitro histone deacetylase assay: enzymatic HDAC8 electrophoretic mobility shift assay; type: biochemical; conditions: electrophoretic mobility shift assay; enzyme 1 nM; 2 μM fluorescently labeled peptide substrate RHKK(Ac)-NH2; 25° C.; 12 concentrations; read-out: HDAC8 IC50
T1 construct: Full length human recombinant HDAC8 protein was expressed in baculoviral system; made in house
T1 sequence (Q9BY41 1-377): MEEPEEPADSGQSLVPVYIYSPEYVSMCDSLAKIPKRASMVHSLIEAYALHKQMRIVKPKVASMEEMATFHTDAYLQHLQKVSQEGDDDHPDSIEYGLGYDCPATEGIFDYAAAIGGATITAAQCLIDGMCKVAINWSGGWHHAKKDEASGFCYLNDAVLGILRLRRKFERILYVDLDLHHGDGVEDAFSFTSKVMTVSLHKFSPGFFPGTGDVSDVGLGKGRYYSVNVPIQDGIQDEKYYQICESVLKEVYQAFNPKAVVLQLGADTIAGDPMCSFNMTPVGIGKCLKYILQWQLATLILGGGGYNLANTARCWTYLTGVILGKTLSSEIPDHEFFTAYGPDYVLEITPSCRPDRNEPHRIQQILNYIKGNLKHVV

[2] = biological target: T2, Recombinant N-terminal GST tag full-length human HDAC8 (Homo sapiens, UniProt Q9BY41); assay: HDAC8 probe binding assay, time resolved fluorescence (TRF) format; conditions: compounds grouped by IC50 range (Table 2)
T2 construct: Recombinant N-terminal GST tag full-length human HDAC8; purchased SignalChem H90-30G-1000; host or cells: baculovirus in Sf9 insect cells
T2 sequence (Q9BY41 1-377): T1 sequence (Q9BY41 1-377)
Summary of the method: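 IC50 values come from four-parameter logistic fits of percent inhibition, scaled between DMSO (high) and no-enzyme (low) controls. Time-resolved fluorescence (ex 340, em 485/535 nm) was read after 16 h at room temperature. Enzyme was Sf9-expressed full-length human HDAC8 with an N-terminal GST tag, in a probe-binding format.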

SMILES | IC50 [1] | IC50 [2]
COc1ccc(CN2C(=O)C(C)(C)Oc3ccc(C(=O)NO)cc32)cc1 [Compound I-98, N-hydroxy-4-(4-methoxybenzyl)-2,2-dimethyl-3-oxo-3,4-dihydro-2H-benzo[b][1,4]oxazine-6-carboxamide] | 25 to 100 nM | 25 to 100 nM
O=C(NO)c1ccc2c(c1)N(Cc1cccc(C(F)(F)F)c1F)C(=O)CO2 [Compound I-265, 4-(2-fluoro-3-(trifluoromethyl)benzyl)-N-hydroxy-3-oxo-3,4-dihydro-2H-benzo[b][1,4]oxazine-6-carboxamide] | 25 to 100 nM | 25 to 100 nM
CS(=O)(=O)c1ccc(CN2CCS(=O)(=O)c3ccc(C(=O)NO)cc32)cc1 [Compound I-82, N-hydroxy-4-(4-(methylsulfonyl)benzyl)-3,4-dihydro-2H-benzo[b][1,4]thiazine-6-carboxamide-1,1-dioxide] | < 25 nM | ≤ 25 nM
O=C(NO)c1ccc2c(c1)N(Cc1cccc(Cl)c1Cl)C(=O)CO2 [Compound I-254, 4-(2,3-dichlorobenzyl)-N-hydroxy-3-oxo-3,4-dihydro-2H-benzo[b][1,4]oxazine-6-carboxamide] | < 25 nM | ≤ 25 nM
O=C(NO)c1ccc2c(c1)N(Cc1ccccc1)CCO2 [Compound I-116, 4-benzyl-N-hydroxy-3,4-dihydro-2H-benzo[b][1,4]oxazine-6-carboxamide] | 100 to 1000 nM | 25 to 100 nM
CC(c1ccc(S(C)(=O)=O)cc1)N1CCOc2ccc(C(=O)NO)cc21 (stereo not shown) [Compound I-135, N-hydroxy-4-(1-(4-(methylsulfonyl)phenyl)ethyl)-3,4-dihydro-2H-benzo[b][1,4]oxazine-6-carboxamide] | 25 to 100 nM | 25 to 100 nM
O=C(NO)c1ccc2c(c1)N(Cc1ccc(C(F)(F)F)cc1F)C(=O)CO2 [Compound I-274, 4-(2-fluoro-4-(trifluoromethyl)benzyl)-N-hydroxy-3-oxo-3,4-dihydro-2H-benzo[b][1,4]oxazine-6-carboxamide] | < 25 nM | ≤ 25 nM
CC(c1c(F)cccc1F)N1C(=O)COc2ccc(C(=O)NO)cc21 (stereo not shown) [Compound I-96, 4-(1-(2,6-difluorophenyl)ethyl)-N-hydroxy-3-oxo-3,4-dihydro-2H-benzo[b][1,4]oxazine-6-carboxamide] | 25 to 100 nM | 25 to 100 nM
O=C(NO)c1ccc2c(c1)N(Cc1ccc(Cl)cc1Cl)C(=O)CO2 [Compound I-256, 4-(2,4-dichlorobenzyl)-N-hydroxy-3-oxo-3,4-dihydro-2H-benzo[b][1,4]oxazine-6-carboxamide] | < 25 nM | ≤ 25 nM
O=C(NO)c1ccc2c(c1)N(Cc1ccc(F)cc1Cl)C(=O)CO2 [Compound I-270, 4-(2-chloro-4-fluorobenzyl)-N-hydroxy-3-oxo-3,4-dihydro-2H-benzo[b][1,4]oxazine-6-carboxamide] | < 25 nM | ≤ 25 nM
COc1ccc(CN2C(=O)COc3ccc(C(=O)NO)cc32)cc1 [Compound I-141, N-hydroxy-4-(4-methoxybenzyl)-3-oxo-3,4-dihydro-2H-benzo[b][1,4]oxazine-6-carboxamide] | < 25 nM | ≤ 25 nM
O=C(NO)c1ccc2c(c1)N(CCOCC1CC1)C(=O)CO2 [Compound I-50, 4-(2-(cyclopropylmethoxy)ethyl)-N-hydroxy-3-oxo-3,4-dihydro-2H-benzo[b][1,4]oxazine-6-carboxamide] | 25 to 100 nM | 25 to 100 nM
O=C(NO)c1ccc2c(c1)N(Cc1ccc(Cl)cc1)C(=O)CO2 [Compound I-64, 4-(4-chlorobenzyl)-N-hydroxy-3-oxo-3,4-dihydro-2H-benzo[b][1,4]oxazine-6-carboxamide] | < 25 nM | ≤ 25 nM
O=C(NO)c1ccc2c(c1)N(Cc1nc(-c3ccccc3)sc1Cl)C(=O)CO2 [Compound I-255, 4-((5-chloro-2-phenylthiazol-4-yl)methyl)-N-hydroxy-3-oxo-3,4-dihydro-2H-benzo[b][1,4]oxazine-6-carboxamide] | 25 to 100 nM | ≤ 25 nM
